How the values were obtained:
PIKFYVE [1] = target: T1, PIKFYVE (Homo sapiens, UniProt Q9Y2I7); experiment: PIKFYVE assay (luciferase ADP-Glo kinase assay, Promega); assay type: biochemical
Protocol: The activity of Compounds 1-20 was measured using a PIKFYVE assay (luciferase ADP-Glo kinase assay available from Promega Corp. of Madison, Wis.).
The activity of Compounds 39-90 was also measured using a PIKFYVE assay (luciferase ADP-Glo kinase assay available from Promega Corp. of Madison, Wis.).
The activity of Compounds 93-347 was also measured using a PIKFYVE assay (luciferase ADP-Glo kinase assay available from Promega Corp. of Madison, Wis.).

PIKFYVE [2] = target: T1, PIKFYVE; experiment: Cell-based Pikfyve inhibition activity assay (EEA1 staining, mean vesicle size in BJ fibroblast cells); conditions: Table 4, 4 hours treatment, 3 μM Apilimod = 100% inhibition
Protocol: BJ fibroblast cells were obtained from American Type Cell Culture (ATCC, CRL-2522). The cells were maintained in DMEM (Genesee Scientific, 25-500) supplemented with 10% fetal bovine serum (Genesee Scientific, 25-514) and 1% penicillin-streptomycin (Genesee Scientific, 25-512) at 37° C. in the atmosphere 5% CO2. BJ fibroblasts were plated into black flat clear bottom 96-well plates (Grenier, 655090) at a density of 3×10^3 per well and were allowed to attach in culture for 8-10 hours before drug treatment. Drugs were tested at eleven doses separated by 3 fold from 0.03 nM to 3000 nM in triplicates for 4 hours at 37° C. After 4 hours, treatment media was aspirated and replaced with 4% Paraformaldehyde (Electron Microscopy Science, 15714-S) and cells were fixed at room temperature for 5 minutes. 4% PFA in wells were then discarded and replaced with a blocking buffer consisting of 1×PBS with 0.1% Tween (Sigma-Aldrich, P1754-500), 5% Donkey Serum (Jackson ImmunoResearch, 017-000-121), and 1% BSA (Caisson Labs, B005-50GM) and incubated at room temperature for 30 minutes. Blocking buffer was then discarded and replaced with a primary EEA1 antibody (Fisher Scientific, BD610457) in a 1:1000 dilution and incubated at 4° C. overnight. Following overnight incubation, plates were washed with 1×PBS three times and incubated with secondary antibody Donkey anti-Mouse IgG, Alexa Fluor 555 (Invitrogen, A31570) (1:1000 dilution) for 1 hour at room temperature in the dark. Subsequently cell plates were washed with 1×PBS three times and can be stored at 4° C. if not being proceeding with imaging procedure.
Images were acquired with 20× objective (ImageXpress MicroConfocal, Molecular Devices) creating z-series of 5 planes (5 steps, […]), 16 tiles per well. Images were then analyzed using a custom CellProfiler protocol to obtain mean vesicle size. The mean vesicle size from 16 images was used as the output for each well. The mean vesicle size from 0.5% DMSO treated condition was considered as having no Pikfyve inhibition activity and the 3 μM Apilimod treated condition was considered as having 100% inhibition activity. The mean vesicle size was converted to % inhibition activity and the data was fitted to a dose-response curve using log(inhibitor) vs normalized response-variable slope using GraphPad Prism.

T1 sequence (Q9Y2I7 whole entry): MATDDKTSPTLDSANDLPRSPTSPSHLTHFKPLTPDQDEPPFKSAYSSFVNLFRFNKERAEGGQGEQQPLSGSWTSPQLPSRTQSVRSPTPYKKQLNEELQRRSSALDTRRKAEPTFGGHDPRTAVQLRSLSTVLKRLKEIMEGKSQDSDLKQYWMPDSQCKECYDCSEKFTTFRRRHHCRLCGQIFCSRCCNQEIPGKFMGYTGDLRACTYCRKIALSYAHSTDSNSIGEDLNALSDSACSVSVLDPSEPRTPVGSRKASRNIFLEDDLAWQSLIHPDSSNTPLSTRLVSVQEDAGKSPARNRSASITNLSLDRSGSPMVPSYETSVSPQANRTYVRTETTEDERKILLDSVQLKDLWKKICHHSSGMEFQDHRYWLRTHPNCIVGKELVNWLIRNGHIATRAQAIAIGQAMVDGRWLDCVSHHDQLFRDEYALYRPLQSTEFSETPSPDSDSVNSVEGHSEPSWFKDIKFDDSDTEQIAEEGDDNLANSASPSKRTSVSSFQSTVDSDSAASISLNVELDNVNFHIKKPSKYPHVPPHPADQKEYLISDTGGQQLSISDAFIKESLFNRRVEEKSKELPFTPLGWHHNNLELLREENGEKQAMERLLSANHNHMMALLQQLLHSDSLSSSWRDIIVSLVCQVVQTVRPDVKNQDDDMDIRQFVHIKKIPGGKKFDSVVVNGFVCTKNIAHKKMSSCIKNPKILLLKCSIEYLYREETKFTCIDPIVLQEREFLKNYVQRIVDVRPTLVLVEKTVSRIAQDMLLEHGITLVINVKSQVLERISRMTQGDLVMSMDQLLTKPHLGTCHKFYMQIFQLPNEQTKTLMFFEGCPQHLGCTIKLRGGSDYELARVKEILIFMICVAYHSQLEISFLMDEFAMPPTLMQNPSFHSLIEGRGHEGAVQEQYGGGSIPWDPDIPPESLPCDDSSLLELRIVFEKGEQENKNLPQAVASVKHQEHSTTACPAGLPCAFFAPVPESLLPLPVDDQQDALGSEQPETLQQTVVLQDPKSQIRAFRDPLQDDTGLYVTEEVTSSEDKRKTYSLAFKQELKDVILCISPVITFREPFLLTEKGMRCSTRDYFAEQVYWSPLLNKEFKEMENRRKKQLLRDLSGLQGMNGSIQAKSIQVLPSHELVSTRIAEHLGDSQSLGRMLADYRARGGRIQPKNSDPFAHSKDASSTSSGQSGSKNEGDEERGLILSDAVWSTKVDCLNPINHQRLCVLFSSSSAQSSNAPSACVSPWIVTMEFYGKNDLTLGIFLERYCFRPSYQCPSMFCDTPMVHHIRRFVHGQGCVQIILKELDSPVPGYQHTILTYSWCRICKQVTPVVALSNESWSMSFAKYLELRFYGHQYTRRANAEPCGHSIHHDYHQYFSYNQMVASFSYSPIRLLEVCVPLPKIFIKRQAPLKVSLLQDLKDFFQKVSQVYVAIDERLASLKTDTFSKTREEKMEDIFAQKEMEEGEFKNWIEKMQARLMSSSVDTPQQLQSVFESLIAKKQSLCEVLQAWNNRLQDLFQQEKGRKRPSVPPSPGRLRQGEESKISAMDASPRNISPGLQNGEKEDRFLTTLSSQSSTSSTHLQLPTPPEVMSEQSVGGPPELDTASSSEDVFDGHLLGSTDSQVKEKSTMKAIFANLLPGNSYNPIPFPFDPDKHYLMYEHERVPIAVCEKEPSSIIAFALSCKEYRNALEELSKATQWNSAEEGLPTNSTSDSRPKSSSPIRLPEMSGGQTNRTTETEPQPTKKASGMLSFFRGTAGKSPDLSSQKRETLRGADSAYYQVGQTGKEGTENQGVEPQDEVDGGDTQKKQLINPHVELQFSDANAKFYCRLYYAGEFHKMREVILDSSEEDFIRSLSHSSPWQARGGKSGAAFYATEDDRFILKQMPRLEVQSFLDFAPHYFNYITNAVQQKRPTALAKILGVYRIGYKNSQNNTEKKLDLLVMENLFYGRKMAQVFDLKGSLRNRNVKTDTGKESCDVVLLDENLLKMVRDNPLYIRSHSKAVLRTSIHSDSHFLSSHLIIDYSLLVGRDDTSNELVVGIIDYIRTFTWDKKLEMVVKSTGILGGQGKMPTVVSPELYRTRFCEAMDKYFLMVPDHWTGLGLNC

| IC50 (PIKFYVE [1]; Table 3) [nM] | EC50 (PIKFYVE [2]) [nM] | IC50 (PIKFYVE [1]; Table 2) [nM] | SMILES |
| --- | --- | --- | --- |
| 10 to 100 | 100 to 500 |  | CO[C@@H](CO)c1nc(N2CCOCC2)cc(-n2ccc(-c3c[nH]c4ncccc34)n2)n1 [Compound 293, (R)-2-(4-(3-(1H-pyrrolo[2,3-b]pyridin-3-yl)-1H-pyrazol-1-yl)-6-morpholinopyrimidin-2-yl)-2-methoxyethan-1-ol] |
| 3 to 10 | > 5000 |  | Cc1cccc(-c2ccn(-c3cc(N4CCOCC4)nc([C@H]4CCOC4)n3)n2)c1 (single isomer, unassigned) [Compound 329] |
| 10 to 100 | > 5000 |  | CO[C@H](CO)c1nc(N2CCO[C@H](C)C2)cc(-n2ccc(-c3cccc(C)c3)n2)n1 (single isomer, unassigned) [Compound 307] |
|  | 100 to 500 | < 5 | CC(=O)c1nc(N2CCOCC2)cc(-n2ccc(-c3cccc(C)c3)n2)n1 [Compound 88, 1-(4-morpholino-6-(3-(m-tolyl)-1H-pyrazol-1-yl)pyrimidin-2-yl)ethan-1-one] |
| 10 to 100 | 100 to 500 |  | Cc1cccc(-c2ccn(-c3cc(N4CCOCC4)nc(OCc4cn[nH]c4)n3)n2)c1 [Compound 120, 4-(2-((1H-pyrazol-4-yl)methoxy)-6-(3-(m-tolyl)-1H-pyrazol-1-yl)pyrimidin-4-yl)morpholine] |
| 10 to 100 | 500 to 5000 |  | Cc1cccc(-c2ccn(-c3cc(N4CCOCC4)nc([C@H]4COCCO4)n3)n2)c1 (single isomer, unassigned) [Compound 325] |
| < 3 | < 20 |  | Cc1cccc(-c2ccn(-c3cc(N4CCOCC4)nc(OCCc4cn[nH]c4)n3)n2)c1 [Compound 214, 4-(2-(2-(1H-pyrazol-4-yl)ethoxy)-6-(3-(m-tolyl)-1H-pyrazol-1-yl)pyrimidin-4-yl)morpholine] |
| 3 to 10 | 100 to 500 |  | Cc1cccc(-c2ccn(-c3cc(N4CCOCC4)nc(COCc4cn(C)cn4)n3)n2)c1 [Compound 297, 4-(2-(((1-methyl-1H-imidazol-4-yl)methoxy)methyl)-6-(3-(m-tolyl)-1H-pyrazol-1-yl)pyrimidin-4-yl)morpholine] |
| 3 to 10 | 100 to 500 |  | CO[C@@H](CO)c1nc(N2CCOCC2)cc(-n2ccc(-c3csc4ccccc34)n2)n1 (single isomer, unassigned) [Compound 259] |
| 3 to 10 | > 5000 |  | Cc1cccc(-c2ccn(-c3cc(N4CCOCC4)nc(CCc4ccnn4C)n3)n2)c1 [Compound 338, 4-(2-(2-(1-methyl-1H-pyrazol-5-yl)ethyl)-6-(3-(m-tolyl)-1H-pyrazol-1-yl)pyrimidin-4-yl)morpholine] |
| 100 to 5000 | 500 to 5000 |  | Cc1cc(-c2ccccc2)nn1-c1cc(N2CCOCC2)nc(N)n1 [Compound 202, 4-(5-methyl-3-phenyl-1H-pyrazol-1-yl)-6-morpholinopyrimidin-2-amine] |
|  | 500 to 5000 | 5 to 100 | COCc1cc(-c2ccccc2)n(-c2cc(N3CCOCC3)nc(OCCc3cnn(C)c3)n2)n1 [Compound 77, 4-(6-(3-(methoxymethyl)-5-phenyl-1H-pyrazol-1-yl)-2-(2-(1-methyl-1H-pyrazol-4-yl)ethoxy)pyrimidin-4-yl)morpholine] |
| < 3 | < 20 |  | Cn1cc(CCOc2nc(N3CCOCC3)cc(-n3ccc(-c4cccc(CO)c4)n3)n2)cn1 [Compound 179, (3-(1-(2-(2-(1-methyl-1H-pyrazol-4-yl)ethoxy)-6-morpholinopyrimidin-4-yl)-1H-pyrazol-3-yl)phenyl)methanol] |
| < 3 | 100 to 500 |  | COC(CO)(c1ccccc1)c1nc(N2CCOCC2)cc(-n2ccc(-c3cccc(C)c3)n2)n1 (centres unmarked) [Compound 228, 2-methoxy-2-(4-morpholino-6-(3-(m-tolyl)-1H-pyrazol-1-yl)pyrimidin-2-yl)-2-phenylethan-1-ol] |
| 10 to 100 | 500 to 5000 |  | Cc1cccc(-c2ccn(-c3cc(N4CCOCC4)nc(O)n3)n2)c1 [Compound 106, 4-morpholino-6-(3-(m-tolyl)-1H-pyrazol-1-yl)pyrimidin-2-ol] |
| < 3 | < 20 |  | Cc1cccc(-c2ccn(-c3cc(N4CCOCC4)nc(OCCc4cnccn4)n3)n2)c1 [Compound 94, 4-(2-(2-(pyrazin-2-yl)ethoxy)-6-(3-(m-tolyl)-1H-pyrazol-1-yl)pyrimidin-4-yl)morpholine] |

| IC50 (PIKFYVE [1]; Table 3) [nM] | EC50 (PIKFYVE [2]) [nM] | IC50 (PIKFYVE [1]; Table 2) [nM] | SMILES |
| --- | --- | --- | --- |
| 3 to 10 | 20 to 100 |  | C[C@H](O)c1cccc(-c2ccn(-c3cc(N4CCOCC4)nc(OCCc4cnn(C)c4)n3)n2)c1 (single isomer, unassigned) [Compound 316] |
|  | 500 to 5000 | 101 to 1000 | CNc1nc(N2CCOCC2)cc(-n2nc(-c3ccccc3)cc2C)n1 [Compound 85] |
| 10 to 100 | 500 to 5000 |  | CC[C@H](OC)c1nc(N2CCOCC2)cc(-n2ccc(-c3cccc(C)c3)n2)n1 (single isomer, unassigned) [Compound 323] |
| 10 to 100 | 100 to 500 |  | Cc1cccc(-c2ccn(-c3cc(N4CCOCC4)nc(OCCNc4ccccc4)n3)n2)c1 [Compound 99, N-(2-((4-morpholino-6-(3-(m-tolyl)-1H-pyrazol-1-yl)pyrimidin-2-yl)oxy)ethyl)aniline] |
| < 3 | 100 to 500 |  | Cc1cccc(-c2ccn(-c3cc(N4CCOCC4)nc(OCCn4cnc(CO)c4)n3)n2)c1 [Compound 116, (1-(2-((4-morpholino-6-(3-(m-tolyl)-1H-pyrazol-1-yl)pyrimidin-2-yl)oxy)ethyl)-1H-imidazol-4-yl)methanol] |
| 3 to 10 | 100 to 500 |  | COC(CO)c1nc(N2CCOCC2)cc(-n2ccc(-c3cccc(C)c3)n2)n1 (racemic) [Compound 156, 2-methoxy-2-(4-morpholino-6-(3-(m-tolyl)-1H-pyrazol-1-yl)pyrimidin-2-yl)ethan-1-ol] |
| 3 to 10 | 100 to 500 |  | c1ccc(-c2ccn(-c3cc(N4CCOCC4)nc(OCc4cccnn4)n3)n2)cc1 [Compound 114, 4-(6-(3-phenyl-1H-pyrazol-1-yl)-2-(pyridazin-3-ylmethoxy)pyrimidin-4-yl)morpholine] |
| 3 to 10 | 500 to 5000 |  | Cn1cc(COCc2nc(N3CCOCC3)cc(-n3ccc(-c4ccccc4)n3)n2)cn1 [Compound 298, 4-(2-(((1-methyl-1H-pyrazol-4-yl)methoxy)methyl)-6-(3-phenyl-1H-pyrazol-1-yl)pyrimidin-4-yl)morpholine] |
| 10 to 100 | 100 to 500 |  | Cc1cccc(-c2ccn(-c3cc(N4CCOCC4)nc(OCC(=O)c4ccccc4)n3)n2)c1 [Compound 169] |
| 3 to 10 | 100 to 500 |  | Cc1cccc(-c2ccn(-c3cc(N4CCOCC4)nc(OCC4COC4)n3)n2)c1 [Compound 122, 4-(2-(oxetan-3-ylmethoxy)-6-(3-(m-tolyl)-1H-pyrazol-1-yl)pyrimidin-4-yl)morpholine] |
| 10 to 100 | 500 to 5000 |  | Cc1cccc(-c2ccn(-c3cc(N4CCOCC4)n4ncc(C)c4n3)n2)c1 [Compound 337, 4-(3-methyl-5-(3-(m-tolyl)-1H-pyrazol-1-yl)pyrazolo[1,5-a]pyrimidin-7-yl)morpholine] |
|  | 100 to 500 | 5 to 100 | CN(C)Cc1cc(-c2ccccc2)nn1-c1cc(N2CCOCC2)nc(OCCc2cnn(C)c2)n1 [Compound 75, N,N-dimethyl-1-(1-(2-(2-(1-methyl-1H-pyrazol-4-yl)ethoxy)-6-morpholinopyrimidin-4-yl)-3-phenyl-1H-pyrazol-5-yl)methanamine] |
| 3 to 10 | 20 to 100 |  | Cc1cccc(-c2ccn(-c3cc(N4CCOCC4)nc(OCCc4c[nH]cn4)n3)n2)c1 [Compound 119, 4-(2-(2-(1H-imidazol-4-yl)ethoxy)-6-(3-(m-tolyl)-1H-pyrazol-1-yl)pyrimidin-4-yl)morpholine] |
|  | 20 to 100 | < 5 | Cc1cccc(-c2ccn(-c3cc(N4CCOCC4)nc(OCCc4cnn(CCN(C)C)c4)n3)n2)c1 [Compound 74, N,N-dimethyl-2-(4-(2-((4-morpholino-6-(3-(m-tolyl)-1H-pyrazol-1-yl)pyrimidin-2-yl)oxy)ethyl)-1H-pyrazol-1-yl)ethan-1-amine] |
| < 3 | 20 to 100 |  | Cc1cccc(-c2ccn(-c3cc(N4CCOCC4)nc(OCCCC#N)n3)n2)c1 [Compound 175, 4-((4-morpholino-6-(3-(m-tolyl)-1H-pyrazol-1-yl)pyrimidin-2-yl)oxy)butanenitrile] |

From patent publication US20230135152A1 (ACURASTEM INCORPORATED, priority 2020, published 2023)
